Experimental data reported in US8557816B2, “Aurora kinase modulators and method of use” (Amgen Inc., priority 2007, dated 2013).

Legend:
AuroraA-TPX2 = molecular target: T1, AuroraA-TPX2 (Homo sapiens, UniProt O14965); test: AuroraA-TPX2 Homogeneous Time Resolved Fluorescent (HTRF) kinase assay; type: biochemical; settings: average; read-out: AurA_IC50_IP (uM Avg)
T1 construct: 20 μL of AuroraA-TPX2 KD GST for a final volume of about 41 μL; GST
T1 sequence (O14965 133-383 limits assumed): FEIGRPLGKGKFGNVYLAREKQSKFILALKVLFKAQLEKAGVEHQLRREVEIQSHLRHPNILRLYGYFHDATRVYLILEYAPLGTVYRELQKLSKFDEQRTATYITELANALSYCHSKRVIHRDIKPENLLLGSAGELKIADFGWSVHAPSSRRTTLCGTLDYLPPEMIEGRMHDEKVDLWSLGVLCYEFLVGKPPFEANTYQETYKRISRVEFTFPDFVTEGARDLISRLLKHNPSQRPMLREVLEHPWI
T1 sequence (Q9ULW0 1-43 partner limits assumed): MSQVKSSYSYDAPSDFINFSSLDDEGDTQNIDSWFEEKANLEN
How it was run: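 HTRF read-out (Eu 615 nm to APC 655 nm) of phosphorylated biotin-PLK, detected with 0.02 nM europium anti-phosphoPLK antibody and 0.0005 mg/mL SA-APC after overnight equilibration.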

AuroraB = molecular target: T2, AuroraB (Homo sapiens, UniProt Q96GD4); test: AuroraB Homogeneous Time Resolved Fluorescent (HTRF) kinase assay; type: biochemical; settings: average; read-out: AurB_IC50_IP (uM Avg)
T2 construct: 20 μL of AuroraB FL H is for a final volume of 41 μL; His
How it was run: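 Full-length His-tagged kinase phosphorylates biotinylated Histone H3 (0.1 μM final) with ATP in pH 7.5 HEPES containing MgCl, MnCl, DTT and BSA for about 90 min. EDTA-containing detection mix with SA-APC and Eu-anti-phosphoHistone H3 then equilibrated about 60 min; HTRF read with 320 nm excitation, emissions 615/655 nm.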

T2 sequence (Q96GD4 whole entry): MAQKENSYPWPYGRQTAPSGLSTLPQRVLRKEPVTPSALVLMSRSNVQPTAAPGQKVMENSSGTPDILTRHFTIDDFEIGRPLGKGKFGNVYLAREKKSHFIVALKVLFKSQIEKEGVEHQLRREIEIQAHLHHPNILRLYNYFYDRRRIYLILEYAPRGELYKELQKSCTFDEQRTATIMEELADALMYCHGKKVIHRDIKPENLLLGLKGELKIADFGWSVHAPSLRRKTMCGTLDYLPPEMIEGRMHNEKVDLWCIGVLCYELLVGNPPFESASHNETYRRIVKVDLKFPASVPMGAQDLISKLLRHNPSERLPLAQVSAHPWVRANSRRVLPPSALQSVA

| IC50 (AuroraA-TPX2) | IC50 (AuroraB) | SMILES |
| --- | --- | --- |
| 0.045 µM | 0.015 µM | N#Cc1cc2nccc(Sc3ccc(Nc4nnc(-c5ccc(Cl)cn5)c5ccccc45)cc3)c2s1 [compound 460] |
| 0.044 µM | 0.009 µM | Cc1ccc(-c2nnc(Nc3ccc(Sc4ccnc5cc(C#N)sc45)cc3)c3ccccc23)cn1 [compound 461] |
| 0.093 µM | 0.012 µM | Clc1ccc(-c2nnc(Nc3ccc(Sc4ccnc5ccoc45)cc3)c3ccccc23)cc1 [compound 465] |
| 0.095 µM | 0.01 µM | c1ccc2c(-c3ccc4c(c3)OCO4)nnc(Nc3ccc(Sc4ccnc5ccoc45)cc3)c2c1 [compound 467] |
| 0.129 µM | 0.029 µM | Cc1csc(-c2nnc(Nc3ccc(Sc4ccnc5ccoc45)cc3)c3ccccc23)c1 [compound 468] |
| 0.11 µM | 0.053 µM | COCCn1ccc2nccc(Sc3ccc(Nc4nnc(-c5ccc(Cl)cc5)c5ccccc45)cc3)c21 [compound 469, 4-(4-chlorophenyl)-N-(4-((1-(2-(methyloxy)ethyl)-1H-pyrrolo[3,2-b]pyridin-7-yl)thio)phenyl)-1-phthalazinamine] |
| 0.041 µM | 0.051 µM | COCCn1ccc2nccc(Sc3ccc(Nc4nnc(-c5cc(C)cs5)c5ccccc45)cc3)c21 [compound 470, N-(4-((1-(2-(methyloxy)ethyl)-1H-pyrrolo[3,2-b]pyridin-7-yl)thio)phenyl)-4-(4-methyl-2-thienyl)-1-phthalazinamine] |
| 0.09 µM | 0.049 µM | CC(C)n1ccc2nccc(Sc3ccc(Nc4nnc(-c5ccc(Cl)cc5)c5ccccc45)cc3)c21 [compound 471, 4-(4-chlorophenyl)-N-(4-((1-(1-methylethyl)-1H-pyrrolo[3,2-b]pyridin-7-yl)thio)phenyl)-1-phthalazinamine] |
| 0.073 µM | 0.011 µM | COCCOc1ccc(-c2nnc(Nc3ccc(Sc4ccnc5cc(OC)cnc45)cc3)c3ccccc23)cc1OCCOC [compound 473] |
| 0.746 µM | 0.293 µM | COCCOCCn1c(=O)ccc2nccc(Sc3ccc(Nc4nnc(-c5ccc(Cl)cc5)c5ccccc45)cc3)c21 [compound 476] |
| 0.009 µM | 0.026 µM | COc1cnc2c(Sc3ccc(Nc4nnc(-c5ccc(C)c(N)c5)c5ccccc45)cc3)ccnc2c1 [compound 477] |
| 2.03 µM | 0.074 µM | COC1CCN(c2nnc(Nc3ccc(Oc4ccnc5ccoc45)cc3)c3ccccc23)CC1 [compound 478] |
| > 125 µM | > 125 µM | Cc1ccc(-c2nnc(Nc3ccc(Sc4ccnc5ccoc45)cc3)c3ccccc23)cc1N [compound 479] |
| 0.162 µM | 0.013 µM | Cc1ccc(-c2nnc(Nc3ccc(Oc4ccnc5ccoc45)cc3)c3ccccc23)cc1N [compound 480] |
| 1.29 µM | 0.015 µM | Cc1cccc(-c2nnc(Nc3ccc(Sc4ccnc5ccoc45)cc3)c3ccccc23)n1 [compound 488] |
| 0.15 µM | 0.039 µM | Cc1cc2nccc(Sc3ccc(Nc4nnc(-c5ccc(Cl)cc5)c5ccccc45)cc3)c2o1 [compound 491] |
| 0.02 µM | 0.002 µM | Clc1ccc(-c2nnc(Nc3ccc(Sc4ccnc5cccnc45)cc3)c3ccccc23)nc1 [compound 493] |
| 0.15 µM | 0.026 µM | COc1cnc2c(Sc3ccc(Nc4nnc(-c5ccccc5F)c5ccccc45)cc3)ccnc2c1 [compound 495] |
| > 25 µM | 4.17 µM | CN(c1ccc(Oc2ccnc3ccc(=O)[nH]c23)cc1)c1nnc(-c2ccc(Cl)cc2)c2ccccc12 [compound 500] |
| 0.027 µM | 0.009 µM | COc1cnc2c(Sc3ccc(Nc4nnc(-c5ccc6cn(C)nc6c5)c5ccccc45)cc3)ccnc2c1 [compound 502] |
| 0.02 µM | 0.007 µM | COc1cnc2c(Sc3ccc(Nc4nnc(N5CCN(C)CC5)c5ccccc45)cc3)ccnc2c1 [compound 503] |
| 0.016 µM | 0.014 µM | CCOc1nc(-c2nnc(Nc3ccc(Sc4ccnc5cc(OC)cnc45)cc3)c3ccccc23)cs1 [compound 505] |
| 0.748 µM | 0.089 µM | COc1cnc2c(Sc3ccc(Nc4nnc(-c5cscn5)c5ccccc45)cc3)ccnc2c1 [compound 506] |
| 0.082 µM | 0.009 µM | COc1cnc2c(Sc3ccc(Nc4nnc(NCCCSC)c5ccccc45)cc3)ccnc2c1 [compound 508] |

Second part, the compound before the results:

| SMILES | IC50 (AuroraA-TPX2) | IC50 (AuroraB) |
| --- | --- | --- |
| c1ccc(-c2nnc(Nc3ccc(Sc4ccnc5cc[nH]c45)cc3)c3ccccc23)cc1 [compound 462, 4-phenyl-N-(4-(1H-pyrrolo[3,2-b]pyridin-7-ylthio)phenyl)-1-phthalazinamine] | 0.557 µM | 0.01 µM |
| Clc1ccc(-c2nnc(Nc3ccc(Sc4ccnc5cc[nH]c45)cc3)c3ccccc23)cc1 [compound 463, 4-(4-chlorophenyl)-N-(4-(1H-pyrrolo[3,2-b]pyridin-7-ylthio)phenyl)-1-phthalazinamine] | 0.146 µM | 0.008 µM |
| Cc1csc(-c2nnc(Nc3ccc(Sc4ccnc5cc[nH]c45)cc3)c3ccccc23)c1 [compound 464, 4-(4-methyl-2-thienyl)-N-(4-(1H-pyrrolo[3,2-b]pyridin-7-ylthio)phenyl)-1-phthalazinamine] | 0.088 µM | 0.006 µM |
| c1ccc(-c2nnc(Nc3ccc(Sc4ccnc5ccoc45)cc3)c3ccccc23)cc1 [compound 466] | 0.431 µM | 0.013 µM |
| Cc1csc(-c2nnc(Nc3ccc(Sc4ccnc5ccn(C(C)C)c45)cc3)c3ccccc23)c1 [compound 472, N-(4-((1-(1-methylethyl)-1H-pyrrolo[3,2-b]pyridin-7-yl)thio)phenyl)-4-(4-methyl-2-thienyl)-1-phthalazinamine] | 0.064 µM | 0.099 µM |
| COCCOc1ccc(-c2nnc(Nc3ccc(Sc4ccnc5cc(OC)cnc45)cc3)c3ccccc23)cc1 [compound 474] | 0.051 µM | 0.016 µM |
| COCCOCCOc1ccc2nccc(Sc3ccc(Nc4nnc(-c5ccc(Cl)cc5)c5ccccc45)cc3)c2n1 [compound 475] | 0.035 µM | 0.026 µM |
| Cc1ccc(-c2nnc(Nc3ccc(Sc4ccnc5ccoc45)cc3)c3ccccc23)cn1 [compound 481] | 0.341 µM | 0.002 µM |
| Cc1ccc(-c2nnc(Nc3ccc(Sc4ccnc5ccoc45)cc3)c3ccccc23)nc1 [compound 482] | 0.415 µM | 0.004 µM |
| Clc1ccc(-c2nnc(Nc3ccc(Oc4ccnc5ccoc45)cc3)c3ccccc23)cc1 [compound 483] | 0.583 µM | 0.013 µM |
| C[Si](C)(C)c1cc2nccc(Sc3ccc(Nc4nnc(Cl)c5ccccc45)cc3)c2o1 [compound 484] | > 125 µM | 0.107 µM |
| COc1ccc(-c2nnc(Nc3ccc(Sc4ccnc5ccoc45)cc3)c3ccccc23)cn1 [compound 485] | 0.479 µM | 0.005 µM |
| Clc1ccc(-c2nnc(Nc3ccc(Sc4ccnc5cc(C6CC6)oc45)cc3)c3ccccc23)cc1 [compound 486] | 0.141 µM | 0.018 µM |
| N#Cc1cc2nccc(Sc3ccc(Nc4nnc(-c5ccc(Cl)cc5)c5ccccc45)cc3)c2o1 [compound 489] | 0.09 µM | 0.019 µM |
| Cc1ccc(-c2nnc(Nc3ccc(Sc4ccnc5cc(C#N)oc45)cc3)c3ccccc23)cc1N [compound 490] | 0.09 µM | 0.013 µM |
| Cc1cc2nccc(Sc3ccc(Nc4nnc(-c5ccc(C)c(N)c5)c5ccccc45)cc3)c2o1 [compound 492] | 0.142 µM | 0.046 µM |
| COc1cc2nccc(Sc3ccc(Nc4nnc(-c5cc(C)cs5)c5ccccc45)cc3)c2cn1 [compound 494] | 0.026 µM | 0.017 µM |
| FC(F)(F)Oc1ccc2c(Oc3ccc(Nc4nnc(-c5ccccc5)c5ccccc45)cc3)ccnc2c1 [compound 496] | 1.04 µM | 0.374 µM |
| FC(F)(F)Oc1ccc2c(Sc3ccc(Nc4nnc(-c5ccccc5)c5ccccc45)cc3)ccnc2c1 [compound 497] | > 25 µM | 0.333 µM |
| FC(F)(F)Oc1ccc2c(Oc3ccc(Nc4nnc(-c5ccc(Cl)cc5)c5ccccc45)cc3)ccnc2c1 [compound 498] | 0.183 µM | 0.165 µM |
| Cc1csc(-c2nnc(Nc3ccc(Sc4ccnc5cc(OC(F)(F)F)ccc45)cc3)c3ccccc23)c1 [compound 499] | 0.277 µM | 0.363 µM |
| COc1cnc2c(Sc3ccc(Nc4nnc(-c5ccc6occc6c5)c5ccccc45)cc3)ccnc2c1 [compound 501] | 0.029 µM | 0.058 µM |
| COc1cnc2c(Sc3ccc(Nc4nnc(-c5ccc6nonc6c5)c5ccccc45)cc3)ccnc2c1 [compound 504] | 0.017 µM | 0.032 µM |
| COc1cnc2c(Sc3ccc(Nc4nnc(N5CCN(CC(F)F)CC5)c5ccccc45)cc3)ccnc2c1 [compound 507] | 0.152 µM | 0.042 µM |
| COc1ccc(-c2nnc(Nc3ccc(Sc4ccnc5cccnc45)cc3)c3ccccc23)cn1 [compound 509] | 0.317 µM | 0.013 µM |
| Cc1csc(-c2nnc(Nc3ccc(Oc4ccnc5cccnc45)cc3)c3cc(F)c(F)cc23)c1 [compound 510] | 0.32 µM | 0.05 µM |
| COc1cnc2c(Sc3ccc(Nc4nnc(OC(C)C)c5ccccc45)cc3)ccnc2c1 [compound 511] | 0.585 µM | 0.069 µM |
